# According to patent publication US9617244B2, “Antibacterial quinoline derivatives” (JANSSEN PHARMACEUTICA NV, priority 2012, dated 2017):
# Structures can show the parent of a compound that is named as a salt.
# Tested on: Staphylococcus aureus (ATCC29213)
# Assay: In-vitro anti-bacterial activity, microtitre plate assay, IC90 determination (non-mycobacterial strains)
# Assay type: cell-based
# Conditions: 90% inhibitory concentration for bacterial growth, 24 hours, resazurin fluorescence
# How it was run: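 Inoculum of about 100 TCID50 (10–60 CFU/well) in Mueller-Hinton broth, serial five-fold compound dilutions, 24 h at 37 °C in air. Growth read by resazurin fluorescence (ex 530/em 590 nm); IC90 in μg/ml as 90% growth inhibition.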
row,IC90 STA B29213,Structure (SMILES)
1,3.21 µg/mL,COc1nc2ccc(Cl)cc2cc1C(c1ccc(Cl)cc1)C1(O)CCNC(Cc2cccnc2)C1 (stereo not drawn) [Compound 468]
2,5.23 µg/mL,COc1nc2ccc(Cl)cc2cc1C(c1ccc(Cl)cc1)C1(O)CCNC(CNc2cccnc2)C1 (stereo not drawn) [Compound 470]

# Same assay, conditions: Staphylococcus aureus, ATCC29213, 24 h, 90% inhibitory concentration for bacterial growth, resazurin fluorescence, read-out: IC90 STA B29213
row,IC90,Structure (SMILES)
1,3.45 µg/mL,COc1nc2ccc(SC(C)C)cc2cc1C(c1ccc(Cl)cc1)C1(O)CCNC(Cc2ccccc2)C1 (stereo not drawn) [Compound 382]
2,2.89 µg/mL,C=CCC1CNCCC1(O)C(c1cccc(Cl)c1)c1cc2cc(Cl)ccc2nc1OC (stereo not drawn) [Compound 394]
3,5.75 µg/mL,COc1nc2ccc(SC)cc2cc1C(c1ccc(Cl)cc1)C1(O)CCNCC1(C)C (stereo not drawn) [Compound 396]
4,> 12.5 µg/mL,COc1nc2ccccc2cc1C(c1ccccc1)C1(O)CCNC(Cc2ccccc2)C1 (stereo not drawn) [Compound 399]
5,> 19.2 µg/mL,COc1ccc2nc(OC)c(C(c3ccccc3)C3(O)CCNC(Cc4ccccc4)C3)cc2c1 (stereo not drawn) [Compound 408]
6,18.2 µg/mL,COc1nc2ccccc2cc1C(c1ccccc1)C1(O)CCNC(c2ccccc2)C1 (stereo not drawn) [Compound 413]
7,5.43 µg/mL,COc1nc2ccc(Cl)cc2cc1C(c1ccc(Cl)cc1)C1(O)CCNCC1C (stereo not drawn) [Compound 420]
8,> 16.1 µg/mL,COc1nc2ccc(Br)cc2cc1C(c1cccnc1)C1(O)CCNC(Cc2ccccc2)C1 (stereo not drawn) [Compound 427]
9,7.72 µg/mL,COc1nc2ccc(Br)cc2cc1C(n1cccn1)C1(O)CCNC(Cc2ccccc2)C1 (stereo not drawn) [Compound 429]
10,11.5 µg/mL,O=c1[nH]c2ccc(Cl)cc2cc1C(c1ccc(Cl)cc1)C1(O)CCNCC1F (stereo not drawn) [Compound 457]
11,8.3 µg/mL,COc1nc2ccc(Cl)cc2cc1C(c1ccc(Cl)cc1)C1(O)CCNC(CNc2cccnc2)C1 (stereo not drawn) [Compound 469]
12,4.94 µg/mL,COc1nc2ccc(Cl)cc2cc1C(c1ccc(Cl)cc1)C1(O)CCNC(c2cccnc2)C1 (stereo not drawn) [Compound 471]

# Tested on: Mycobacterium smegmatis (ATCC607)
# Assay: In-vitro anti-bacterial activity against strain M. Smegmatis ATCC607
# Assay type: cell-based
# Conditions: 90% inhibitory concentration for bacterial growth, 48 hours, Alamar Blue fluorescence
# How it was run: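 Serial five-fold compound dilutions in BSA-supplemented wells, inoculated with ~250 CFU/well in Mueller-Hinton broth, incubated 48 h at 37 °C, 5% CO2. Growth read by Alamar Blue fluorescence (ex 530/em 590 nm); IC90 in μg/ml.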
row,IC90 MSM 607,Structure (SMILES)
1,5.43 µg/mL,COc1nc2ccc(Cl)cc2cc1C(c1ccc(Cl)cc1)C1(O)CCNCC1C (stereo not drawn) [Compound 420]
2,3.21 µg/mL,COc1nc2ccc(Cl)cc2cc1C(c1ccc(Cl)cc1)C1(O)CCNC(Cc2cccnc2)C1 (stereo not drawn) [Compound 468]
3,3.08 µg/mL,COc1nc2ccc(Cl)cc2cc1C(c1ccc(Cl)cc1)C1(O)CCNC(CNc2cccnc2)C1 (stereo not drawn) [Compound 470]

# Same assay, conditions: Mycolicibacterium smegmatis, ATCC607, 48 h, 90% inhibitory concentration for bacterial growth, Alamar Blue fluorescence, read-out: IC90 MSM 607
row,IC90,Structure (SMILES)
1,2.18 µg/mL,COc1nc2ccc(SC(C)C)cc2cc1C(c1ccc(Cl)cc1)C1(O)CCNC(Cc2ccccc2)C1 (stereo not drawn) [Compound 382]
2,2.29 µg/mL,C=CCC1CNCCC1(O)C(c1cccc(Cl)c1)c1cc2cc(Cl)ccc2nc1OC (stereo not drawn) [Compound 394]
3,5.75 µg/mL,COc1nc2ccc(SC)cc2cc1C(c1ccc(Cl)cc1)C1(O)CCNCC1(C)C (stereo not drawn) [Compound 396]
4,> 12.5 µg/mL,COc1nc2ccccc2cc1C(c1ccccc1)C1(O)CCNC(Cc2ccccc2)C1 (stereo not drawn) [Compound 399]
5,> 19.2 µg/mL,COc1ccc2nc(OC)c(C(c3ccccc3)C3(O)CCNC(Cc4ccccc4)C3)cc2c1 (stereo not drawn) [Compound 408]
6,18.2 µg/mL,COc1nc2ccccc2cc1C(c1ccccc1)C1(O)CCNC(c2ccccc2)C1 (stereo not drawn) [Compound 413]
7,> 16.1 µg/mL,COc1nc2ccc(Br)cc2cc1C(c1cccnc1)C1(O)CCNC(Cc2ccccc2)C1 (stereo not drawn) [Compound 427]
8,3.87 µg/mL,COc1nc2ccc(Br)cc2cc1C(n1cccn1)C1(O)CCNC(Cc2ccccc2)C1 (stereo not drawn) [Compound 429]
9,5.76 µg/mL,O=c1[nH]c2ccc(Cl)cc2cc1C(c1ccc(Cl)cc1)C1(O)CCNCC1F (stereo not drawn) [Compound 457]
10,4.16 µg/mL,COc1nc2ccc(Cl)cc2cc1C(c1ccc(Cl)cc1)C1(O)CCNC(CNc2cccnc2)C1 (stereo not drawn) [Compound 469]
11,2.91 µg/mL,COc1nc2ccc(Cl)cc2cc1C(c1ccc(Cl)cc1)C1(O)CCNC(c2cccnc2)C1 (stereo not drawn) [Compound 471]

# Tested on: not given
# Assay: not given
# Conditions: not given
row,melting point,Structure (SMILES)
1,145 °C,COc1nc2ccc(Br)cc2cc1C(c1cccc(Cl)c1)C1(O)CCNC(Cc2ccccc2)C1 (stereo not drawn) (as salt: fumarate) [Compound 35]
2,209 °C,COc1nc2ccc(F)cc2cc1C(c1ccc(Cl)cc1)C1(O)CCNC(Cc2ccccc2)C1 (stereo not drawn) (as salt: fumarate) [Compound 54]
3,120 °C,COc1nc2ccc(F)cc2cc1C(c1ccc(Cl)cc1)C1(O)CCNC(Cc2ccccc2)C1 (stereo not drawn) (as salt: fumarate) [Compound 55]
4,141 °C,CCCN(C)CC1CC(O)(C(c2ccc(Cl)cc2)c2cc3cc(Cl)ccc3nc2OC)CCN1 (stereo not drawn) (as salt: fumarate) [Compound 64]
5,148 °C,COc1nc2ccc(Br)cc2cc1C(c1ccc(Cl)cc1)C1(O)CCN(Cc2ccccc2)C(Cc2ccccc2)C1 (stereo not drawn) (as salt: fumarate) [Compound 76]
6,155 °C,COc1nc2ccc(Br)cc2cc1C(c1ccc(Cl)cc1)C1(O)CCNC(Cc2ccccc2)C1 (stereo not drawn) (as salt: fumarate) [Compound 77]
7,194 °C,CSc1nc2ccc(Br)cc2cc1C(c1ccc(Cl)cc1)C1(O)CCNC(Cc2ccccc2)C1 (stereo not drawn) (as salt: fumarate) [Compound 88]
8,140 °C,COc1nc2ccc(SC)cc2cc1C(c1ccc(Cl)cc1)C1(O)CCNC(Cc2ccccc2)C1 (stereo not drawn) (as salt: fumarate) [Compound 90]
9,> 250 °C,COc1nc2ccc(SC)cc2cc1C(c1ccc(Cl)cc1)C1(O)CCNC(Cc2ccccc2)C1 (stereo not drawn) (as salt: fumarate) [Compound 93]
10,168 °C,COc1nc2ccc(Cl)cc2cc1C(c1ccc(Cl)cc1)C1(O)CCNC(Cc2ccccc2)C1 (stereo not drawn) (as salt: fumarate) [Compound 94]
11,130 °C,COc1nc2ccc(Br)cc2cc1C(c1ccc(Cl)cc1)C1(O)CCNC(Cc2ccc(F)c(F)c2)C1 (stereo not drawn) (as salt: fumarate) [Compound 113]
12,215 °C,CS(=O)(=O)c1ccc2[nH]c(=O)c(C(c3ccc(Cl)cc3)C3(O)CCNC(Cc4ccccc4)C3)cc2c1 (stereo not drawn) (as salt: fumarate) [Compound 119]
13,130 °C,COc1nc2ccccc2cc1C(c1ccc(Cl)cc1)C1(O)CCNC(Cc2ccc(F)c(F)c2)C1 (stereo not drawn) (as salt: fumarate) [Compound 139]
14,155 °C,COc1nc2ccc(SC)cc2cc1C(c1ccccc1)C1(O)CCNC(Cc2ccccc2)C1 (stereo not drawn) (as salt: fumarate) [Compound 141]
